# Data as given in patent publication US20240383904A1, “HETEROCYCLIC COMPOUNDS” (Hoffmann-La Roche Inc., priority 2021, published 2024).
# Target: T1, MAGL (Homo sapiens, UniProt Q99685)
# T1 sequence (Q99685 1-303): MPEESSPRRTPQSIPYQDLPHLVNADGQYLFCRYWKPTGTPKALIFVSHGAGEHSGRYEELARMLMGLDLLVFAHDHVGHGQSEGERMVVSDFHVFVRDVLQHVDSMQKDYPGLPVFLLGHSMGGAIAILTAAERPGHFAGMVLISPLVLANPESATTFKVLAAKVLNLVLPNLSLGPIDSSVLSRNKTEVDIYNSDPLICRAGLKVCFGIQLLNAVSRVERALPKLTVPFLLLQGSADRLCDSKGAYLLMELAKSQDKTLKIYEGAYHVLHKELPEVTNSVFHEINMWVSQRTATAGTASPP
# Experiment: 2-AG assay: MAGL inhibitory activity by hydrolysis of 2-arachidonoylglycerol to arachidonic acid, followed by mass spectrometry
# Format: biochemical
# Conditions: 15 min preincubation, 30 min reaction at RT, 8 μM 2-arachidonoylglycerol
row,IC50 [nM],SMILES
1,78.4,"O=C1COCC2(CN(C(=O)N3CC4(CN(Cc5ccc(S(=O)(=O)C(F)(F)F)cc5)C4)C3)C2)N1 [Example 229, 2-[6-[[4-(trifluoromethylsulfonyl)phenyl]methyl]-2,6-diazaspiro[3.3]heptane-2-carbonyl]-8-oxa-2,5-diazaspiro[3.5]nonan-6-one]"
2,59,"O=C1COCC2(CN(C(=O)N3CC4(CC(Cn5cc(C(F)(F)F)cn5)C4)C3)C2)N1 [Example 230, 2-[6-[[4-(trifluoromethyl)pyrazol-1-yl]methyl]-2-azaspiro[3.3]heptane-2-carbonyl]-8-oxa-2,5-diazaspiro[3.5]nonan-6-one]"
3,255,"O=C1COCC2(CN(C(=O)N3CC4(CC(Cc5ccc(C(F)(F)F)nn5)C4)C3)C2)N1 [Example 231, 2-[6-[[6-(trifluoromethyl)pyrida-zin-3-yl]methyl]-2-azaspiro[3.3]heptane-2-carbonyl]-8-oxa-2,5-diazaspiro[3.5]nonan-6-one]"
4,230,"O=C1COCC2(CN(C(=O)N3CC4(CC(Cc5cnc(C(F)(F)F)nc5)C4)C3)C2)N1 [Example 232, 2-[6-[[2-(trifluoromethyl)pyrimi-din-5-yl]methyl]-2-azaspiro[3.3]heptane-2-carbonyl]-8-oxa-2,5-diazaspiro[3.5]nonan-6-one]"
5,265,"O=C1COCC2(CN(C(=O)N3CC4(CCN(Cc5ccc(S(=O)(=O)C(F)(F)F)cc5)C4)C3)C2)N1 [Example 233, 2-[7-[[4-(trifluoromethylsulfonyl)phenyl]methyl]-2,7-diazaspiro[3.4]octane-2-carbonyl]-8-oxa-2,5-diazaspiro[3.5]nonan-6-one]"
6,8.49,"O=C1COCC2(CN(C(=O)N3CC4(CC[C@@H](Cc5ccc(S(=O)(=O)C(F)(F)F)cc5)C4)C3)C2)N1 [Example 234, 2-[(6S)-6-[[4-(trifluoromethylsulfonyl)phenyl]methyl]-2-azaspiro[3.4]octane-2-carbonyl]-8-oxa-2,5-diazaspiro[3.5]nonan-6-one]"
7,7.35,"O=C1COCC2(CN(C(=O)N3CC4(CC[C@H](Cc5ccc(S(=O)(=O)C(F)(F)F)cc5)C4)C3)C2)N1 [Example 235, 2-[(6R)-6-[[4-(trifluoromethylsulfonyl)phenyl]methyl]-2-azaspiro[3.4]octane-2-carbonyl]-8-oxa-2,5-diazaspiro[3.5]nonan-6-one]"
8,2.16,"O=C1COCC2(CN(C(=O)N3CC4(CC[C@@H](Cc5cccc(S(=O)(=O)C(F)(F)F)c5)C4)C3)C2)N1 [Example 236, 2-[(6S)-6-[[3-(trifluoromethylsulfonyl)phenyl]methyl]-2-azaspiro[3.4]octane-2-carobnyl]-8-oxa-2,5-diazaspiro[3.5]nonan-6-one]"
9,3.15,"O=C1COCC2(CN(C(=O)N3CC4(CC[C@H](Cc5cccc(S(=O)(=O)C(F)(F)F)c5)C4)C3)C2)N1 [Example 237, 2-[(6R)-6-[[3-(trifluoromethylsulfonyl)phenyl]methyl]-2-azaspiro[3.4]octane-2-carbonyl]-8-oxa-2,5-diazaspiro[3.5]nonan-6-one]"
10,16.5,"CS(=O)(=O)c1cc(CC2CC3(C2)CN(C(=O)N2CC4(COCC(=O)N4)C2)C3)cc(C(F)(F)F)c1 [Example 238, 2-[6-[[3-methylsulfonyl-5-(trifluoromethyl)phenyl]methyl]-2-azaspiro[3.3]heptane-2-carbonyl]-8-oxa-2,5-diazaspiro[3.5]nonan-6-one]"
11,52.8,"O=C1COCC2(CN(C(=O)N3CC4(CC(Cn5ccc(C(F)(F)F)n5)C4)C3)C2)N1 [Example 239, 2-[6-[[3-(trifluoromethyl)pyrazol-1-yl]methyl]-2-azaspiro[3.3]heptane-2-carbonyl]-8-oxa-2,5-diazaspiro[3.5]nonan-6-one]"
12,1240,"O=C1COCC2(CN(C(=O)N3CC4(CCN(Cc5ccc(C(F)(F)F)nc5)C4)C3)C2)N1 [Example 240, 2-[7-[[6-(trifluoromethyl)-3-pyridyl]methyl]-2,7-diazaspiro[3.4]octane-2-carbonyl]-8-oxa-2,5-diazaspiro[3.5]nonan-6-one]"
13,928,"O=C1COCC2(CN(C(=O)N3CC4(CCN(Cc5ccc(C(F)(F)F)cn5)C4)C3)C2)N1 [Example 241, 2-[7-[[5-(trifluoromethyl)-2-pyridyl]methyl]-2,7-diazaspiro[3.4]octane-2-carbonyl]-8-oxa-2,5-diazaspiro[3.5]nonan-6-one]"
14,0.06,"N#Cc1cc(C(F)(F)F)ccc1CC1CC2(C1)CN(C(=O)N1CC3(COC(=O)N3)C1)C2 [Example 242, 2-[[2-(6-oxo-7-oxa-2,5-diazaspiro[3.4]octane-2-carbonyl)-2-azaspiro[3.3]heptan-6-y]methyl]-5-(trifluoroemthyl)benzoni-trile]"
15,0.6,"N#Cc1cc(CC2CC3(C2)CN(C(=O)N2CC4(COC(=O)N4)C2)C3)cnc1C(F)(F)F [Example 243, 5-[[2-(6-oxo-7-oxa-2,5-diazaspiro[3.4]octane-2-carbonyl)-2-azaspiro[3.3]heptan-6-yl]methyl]-2-(trifluoromethyl)pyridine-3-carbonitrile]"
16,0.94,"NC(=O)c1ccc(CC2CC3(C2)CN(C(=O)N2CC4(COC(=O)N4)C2)C3)cc1OC(F)(F)F [Example 244, 4-[[2-(6-oxo-7-oxa-2,5-diazaspiro[3.4]octane-2-carbonyl)-2-azaspiro[3.3]heptan-6-yl]methyl]-2-(trifluoromethoxy)benz-amide]"
17,1.51,"NC(=O)c1cc(CC2CC3(C2)CN(C(=O)N2CC4(COC(=O)N4)C2)C3)ccc1OC(F)(F)F [Example 245, 5-[[2-(6-oxo-7-oxa-2,5-diazaspiro[3.4]octane-2-carbonyl)-2-azaspiro[3.3]heptan-6-yl]methyl]-2-(trifluoromethoxy)benz-amide]"
18,6.17,"Cn1nc(C(F)(F)F)cc1CC1CC2(C1)CN(C(=O)N1CC3(CCC(=O)N3)C1)C2 [Example 246, 2-[6-[[2-methyl-5-(trifluoromethyl)pyrazol-3-yl]methyl]-2-azaspiro[3.3]heptane-2-carbonyl]-2,5-diazaspiro[3.4]octan-6-one]"
19,311,"N#Cc1cnn(CC2CC3(C2)CN(C(=O)N2CC4(CCC(=O)N4)C2)C3)c1 [Example 247, 1-[[2-(6-oxo-2,5-diazaspiro[3.4]octane-2-carbonyl)-2-azaspiro[3.3]heptan-6-yl]methyl]pyrazole-4-carbonitrile]"
20,32.8,"O=C1CCC2(CN(C(=O)N3CC4(CC(Cc5cnn(CC(F)(F)F)c5)C4)C3)C2)N1 [Example 248, 2-[6-[[1-(2,2,2-trifluoroethyl)pyrazol-4-yl]methyl]-2-azaspiro[3.3]heptane-2-carbonyl]-2,5-diazaspiro[3.4]octan-6-one]"
21,2.16,"O=C1CCC2(CN(C(=O)N3CC4(CC(Cn5ccc(C(F)(F)F)cc5=O)C4)C3)C2)N1 [Example 249, 2-[6-[[2-oxo-4-(trifluoromethyl)-1-pyridyl]methyl]-2-azaspiro[3.3]heptane-2-carbonyl]-2,5-diazaspiro[3.4]octan-6-one]"
22,0.6,"N#Cc1ccc(CC2CC3(C2)CN(C(=O)N2CC4(CCC(=O)N4)C2)C3)c(F)c1 [Example 251, 3-fluoro-4-[[2-(6-oxo-2,5-diazaspiro[3.4]octane-2-carbonyl)-2-azaspiro[3.3]heptan-6-yl]methyl]benzonitrile]"
23,9.83,"O=C1CCC2(CN(C(=O)N3CC4(CC(Cc5cncc(S(=O)(=O)C(F)(F)F)c5)C4)C3)C2)N1 [Example 252, 2-[6-[[5-(trifluoromethylsulfonyl)-3-pyridyl]methyl]-2-azaspiro[3.3]heptane-2-carbonyl]-2,5-diazaspiro[3.4]octan-6-one]"
24,33.5,"O=C1COCC2(CN(C(=O)N3CC4(CC(Cc5cncc(S(=O)(=O)C(F)(F)F)c5)C4)C3)C2)N1 [Example 253, 2-[6-[[5-(trifluoromethylsulfonyl)-3-pyridyl]methyl]-2-azaspiro[3.3]heptane-2-carbonyl]-8-oxa-2,5-diazaspiro[3.5]nonan-6-one]"
25,4.84,"O=C1COCC2(CN(C(=O)N3CC4(CC(Cc5cc(F)cc(S(=O)(=O)C(F)(F)F)c5)C4)C3)C2)N1 [Example 254, 2-[6-[[3-fluoro-5-(trifluoromethylsulfonyl)phenyl]methyl]-2-azaspiro[3.3]heptane-2-carbonyl]-8-oxa-2,5-diazaspiro[3.5]nonan-6-one]"
26,4.19,"CS(=N)(=O)c1cc(CC2CC3(C2)CN(C(=O)N2CC4(CCC(=O)N4)C2)C3)cc(C(F)(F)F)c1 (stereo not drawn) [Example 255, 2-[6-[[3-(methylsulfonimidoyl)-5-(trifluoromethyl)phenyl]methyl]-2-azaspiro[3.3]heptane-2-carbonyl]-2,5-diazaspiro[3.4]octan-6-one]"
27,26.9,"O=C1CCC2(CN(C(=O)N3CC4(CCN(Cc5cccc(S(=O)(=O)C(F)(F)F)c5)C4)C3)C2)N1 [Example 256, 2-[7-[[3-(trifluoromethylsulfonyl)phenyl]methyl]-2,7-diazaspiro[3.4]octane-2-carbonyl]-2,5-diazaspiro[3.4]octan-6-one]"
28,16.5,"O=C1CCC2(CN(C(=O)N3CC4(CC(Cc5cc(C(F)F)[nH]n5)C4)C3)C2)N1 [Example 257, 2-[6-[[5-(difluoromethyl)-1H-pyrazol-3-yl]methyl]-2-azaspiro[3.4]heptane-2-carbonyl]-2,5-diazaspiro[3.4]octan-6-one]"
29,25.9,"O=C1CCC2(CN(C(=O)N3CC4(CC(Cn5cc(C(F)(F)F)ccc5=O)C4)C3)C2)N1 [Example 259, 2-[6-[[2-oxo-5-(trifluoromethyl)-1-pyridyl]methyl]-2-azaspiro[3.3]heptane-2-carbonyl]-2,5-diazaspiro[3.4]octan-6-one]"

row,SMILES,IC50 [nM]
1,"O=C1CCC2(CN(C(=O)N3CC4(CN(Cc5ccc(S(=O)(=O)C(F)(F)F)cc5F)C4)C3)C2)N1 [Example 258, 2-[6-[[2-fluoro-4-(trifluoromethylsulfonyl)phenyl]methyl]-2,6-diazaspiro[3.4]heptane-2-carbonyl]-2,5-diazaspiro[3.4]octan-6-one]",18.6
